Experimental data taken from patent publication US20090105252A1, “Pyrimidine Derivatives and Their Use in Therapy as well as the Use of Pyrimidine Derivatives in the Manufacture of a Medicament for Prevention and/or Treatment of Alzheimer's Disease” (AstraZeneca AB, priority 2005, published 2009).
Counter-ions that a name gives are not always drawn.

Target: T1, recombinant human GSK3β (Homo sapiens, UniProt P49841)
T1 construct: purchased Dundee University, UK
Assay: GSK3β Scintillation Proximity Assay (ATP competition)
Format: biochemical
Details: inhibition constant from ATP competition, 10 inhibitor concentrations in duplicate; ATP 1 μM; Km of ATP 20 μM
Experimental: Determination of ATP competition in Scintillation Proximity GSK3β Assay.
GSK3β Scintillation Proximity Assay.
The competition experiments were carried out in duplicate with 10 different concentrations of the inhibitors in clear-bottom microtiter plates (Wallac, Finland). A biotinylated peptide substrate, Biotin-Ala-Ala-Glu-Glu-Leu-Asp-Ser-Arg-Ala-Gly-Ser(PO3H2)-Pro-Gln-Leu (AstraZeneca, Lund), was added at a final concentration of 1 μM in an assay buffer containing 1 mU recombinant human GSK3β (Dundee University, UK), 12 mM morpholinepropanesulfonic acid (MOPS), pH 7.0, 0.3 mM EDTA, 0.01% β-mercaptorethanol, 0.004% Brij 35 (a […] detergent), 0.5% glycerol and 0.5 μg BSA/25 μl. The reaction was initiated by the addition of 0.04 μCi [γ-^33P]ATP (Amersham, UK) and unlabelled ATP at a final concentration of 1 μM and assay volume of 25 μl. After incubation for 20 minutes at room temperature, each reaction was terminated by the addition of 25 μl stop solution containing 5 mM EDTA, 50 μM ATP, 0.1% Triton X-100 and 0.25 mg streptavidin coated Scintillation Proximity Assay (SPA) beads (Amersham, UK). After 6 hours the radioactivity was determined in a liquid scintillation counter (1450 MicroBeta Trilux, Wallac). The inhibition curves were analysed by non-linear regression using GraphPad Prism, USA. The Km value of ATP for GSK30, used to calculate the inhibition constants (Ki) of the various compounds, was 20 μM.

T1 sequence (P49841 whole entry): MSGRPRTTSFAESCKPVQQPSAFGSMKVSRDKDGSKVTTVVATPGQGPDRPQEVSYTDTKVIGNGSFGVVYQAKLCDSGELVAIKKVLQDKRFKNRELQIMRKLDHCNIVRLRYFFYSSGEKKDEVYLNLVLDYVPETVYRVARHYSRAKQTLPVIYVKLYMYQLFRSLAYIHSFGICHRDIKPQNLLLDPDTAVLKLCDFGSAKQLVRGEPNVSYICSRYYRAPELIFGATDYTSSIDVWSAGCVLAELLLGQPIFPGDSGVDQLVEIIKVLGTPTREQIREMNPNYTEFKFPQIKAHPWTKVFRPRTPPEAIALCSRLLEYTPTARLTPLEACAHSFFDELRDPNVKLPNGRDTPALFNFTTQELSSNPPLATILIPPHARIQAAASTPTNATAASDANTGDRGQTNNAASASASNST

| Ki | SMILES |
| --- | --- |
| 10 nM | COc1cc(Nc2ncc(F)c(-c3cnc(C)n3C)n2)cc(C(F)(F)F)c1 [Example 1, 4-(1,2-Dimethyl-1H-imidazol-5-yl)-5-fluoro-N-[3-methoxy-5-(trifluoromethyl)phenyl]pyrimidin-2-amine] |
| 14 nM | Cc1ncc(-c2nc(Nc3ccc(C(=O)N4CCN(C)CC4)cc3)ncc2F)n1C1CCCCC1 [Example 17, 4-(1-Cyclohexyl-2-methyl-1H-imidazol-5-yl)-5-fluoro-N-{4-[(4-methylpiperazin-1-yl)carbonyl]phenyl}pyrimidin-2-amine hydrochloride] |
| 22 nM | Cc1ncc(-c2nc(Nc3cccc(S(C)(=O)=O)c3)ncc2F)n1C1CCOCC1 [Example 22, 5-Fluoro-N-[3-(methylsulfonyl)phenyl]-4-[2-methyl-1-(tetrahydro-2H-pyran-4-yl)-1H-imidazol-5-yl]pyrimidin-2-amine hydrochloride] |
| 126 nM | Cc1ncc(-c2nc(Nc3ccc(CN4CCN(C)CC4)cc3)ncc2F)n1C [Example 29, 4-(1,2-Dimethyl-1H-imidazol-5-yl)-5-fluoro-N-{4-[(4-methylpiperazin-1-yl)methyl]phenyl}pyrimidin-2-amine hydrochloride] |
